In patent US20260201008A1, “SECRETIN-DERIVED GLP1R SELECTIVE AGONISTS” (GUBRA A/S, priority 2023, published 2026):
Like-named read-outs stand apart in the source and are kept apart here. Numbered stars: 1 amine (or outer) side, 2 acyl side, 3 side chain; on linkers, the order of the positions; unused ones are H or OH. Square brackets hold non-standard residues; d marks the D form. Side chains are listed from the residue outwards. Peptide text beside a SMILES is read from it. * marks the point of attachment. C20 diacid = O=C(O)CCCCCCCCCCCCCCCCCCC(=O)*; γGlu = O=C(O)[C@H](CCC(=O)[*:2])N[*:1]; AEEA = NCCOCCOCC(=O)O; Aib = CC(C)(N)C(=O)O

What was measured:
[1] = Turbidity of crude library peptides (absorbance at 600 nm); assay type: physicochemical; conditions: Physical stability of peptides
How it was run: (§1)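 Crude peptides at 267 μM in 50 mM sodium acetate pH 4.0 or 50 mM sodium phosphate pH 7.0, pre-incubated 1-2 h at room temperature, then 4 μM final ThT added. Turbidity read first as A600. ThT fluorescence (ex 450/em 480 nm) read every 10 min for 72 h at 40° C, with 5 min shaking before each read; fibril formation = average emission.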

[2] = Fibril formation of crude library peptides (Thioflavin T); assay type: physicochemical; set-up: key: average ThT fluorescence emission at 480 nm (ex 450 nm), raw units; conditions: Physical stability of peptides
How it was run: as §1

[3] = molecular target: GLP1R (Homo sapiens, UniProt P43220); experiment: hGLP1R potency, cAMP accumulation in CHO-K1 cells stably overexpressing hGLP1R; assay type: cell-based; set-up: host or cells: CHO-K1; conditions: for EC50: cAMP accumulation; for SCTR EC50/GLP1R EC50 ratio: cAMP accumulation in CHO-K1 cells; for Selectivity: SCTR EC50/GLP1R EC50 ratio
How it was run: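 Thawed cells go straight into buffer containing 0.5 mM IBMX and 0.05% casein, get graded compound doses for 30 min at room temperature, and are then assayed for accumulated cAMP by time-resolved FRET. Human GLP-1(7-36) serves as positive control; EC50 is derived by nonlinear regression.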

[4] = molecular target: SCTR (Homo sapiens, UniProt P47872); experiment: hSCTR potency, cAMP accumulation in CHO-K1 cells stably overexpressing hSCTR; assay type: cell-based; set-up: alternatively Euroscreen ES-712-AF; FAST-0161L; host or cells: CHO-K1; conditions: cAMP accumulation
How it was run: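 Read-out is TR-FRET cAMP detection, recorded one hour after reagent addition, in CHO-K1 cells stably overexpressing hSCTR. Cells in DPBS containing 0.05% casein and 0.5 mM IBMX are exposed to graded peptide doses for 30 min at room temperature, with human secretin as reference agonist.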

[5] = CHO-K1 cells overexpressing hGLP1R, read-out: hGLP1R pEC50 (converted)
[6] = selectivity for hGLP1R over hSCTR
[7] = CHO-K1 cells overexpressing hSCTR, read-out: hSCTR pEC50 (converted)
[8] = CHO-K1 cells overexpressing hGLP1R, read-out: pEC50 hGLPR1 (converted)
[9] = CHO-K1 cells overexpressing hSCTR, read-out: pEC50 hSCTR (converted)

Chain of GLP1R (P43220 24-463): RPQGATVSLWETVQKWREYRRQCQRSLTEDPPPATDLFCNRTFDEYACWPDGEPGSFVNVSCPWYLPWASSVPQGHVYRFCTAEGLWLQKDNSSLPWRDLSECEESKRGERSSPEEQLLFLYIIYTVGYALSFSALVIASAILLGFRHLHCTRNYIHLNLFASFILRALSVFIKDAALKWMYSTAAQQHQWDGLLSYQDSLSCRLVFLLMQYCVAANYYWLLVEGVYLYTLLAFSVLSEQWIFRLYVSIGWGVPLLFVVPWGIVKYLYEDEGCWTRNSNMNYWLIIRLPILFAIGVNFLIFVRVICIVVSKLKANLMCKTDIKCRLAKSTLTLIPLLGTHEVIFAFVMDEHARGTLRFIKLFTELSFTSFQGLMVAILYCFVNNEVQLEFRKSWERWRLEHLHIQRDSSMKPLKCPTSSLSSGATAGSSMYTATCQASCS
Chain of SCTR (P47872 23-440): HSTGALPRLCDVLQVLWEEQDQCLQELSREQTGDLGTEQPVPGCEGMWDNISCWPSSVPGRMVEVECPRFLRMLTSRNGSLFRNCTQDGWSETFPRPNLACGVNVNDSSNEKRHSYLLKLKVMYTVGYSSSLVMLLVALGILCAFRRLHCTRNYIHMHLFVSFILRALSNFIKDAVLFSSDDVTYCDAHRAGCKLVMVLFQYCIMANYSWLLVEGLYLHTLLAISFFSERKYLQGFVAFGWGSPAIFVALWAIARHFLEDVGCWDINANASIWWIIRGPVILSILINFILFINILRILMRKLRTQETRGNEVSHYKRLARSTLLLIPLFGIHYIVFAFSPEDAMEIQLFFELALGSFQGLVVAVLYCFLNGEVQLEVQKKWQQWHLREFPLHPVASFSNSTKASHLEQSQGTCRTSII

Turbidity (pH 7) [1]	Fibril formation [2]	EC50 [3, 5]	SCTR EC50/GLP1R EC50 ratio [3, 6]	EC50 [4, 7]	EC50 ([3]; CHO-K1 cells stably overexpressing hGLP1R, read-out: hGLP1R potency (pEC50) (converted))	SCTR EC50/GLP1R EC50 ratio ([3]; selectivity ratio, hSCTR vs hGLP1R)	EC50 ([4]; CHO-K1 cells stably overexpressing hSCTR, read-out: hSCTR potency (pEC50) (converted))	Selectivity [3]	EC50 [3, 8]	EC50 [4, 9]	SMILES
0.08	3296	0.0316 nM	247885	7940 nM	–	–	–	–	–	–	CC[C@H](C)[C@H](NC(=O)C(C)(C)NC(=O)[C@@H](N)Cc1c[nH]cn1)C(=O)NCC(=O)N[C@H](C(=O)N[C@@H](Cc1ccccc1)C(=O)N[C@H](C(=O)N[C@@H](CO)C(=O)N[C@@H](CC(=O)O)C(=O)N[C@H](C(=O)N[C@@H](CO)C(=O)N[C@@H](Cc1ccc(O)cc1)C(=O)N[C@@H](CC(C)C)C(=O)N[C@@H](CCCCNC(=O)COCCOCCNC(=O)COCCOCCNC(=O)CC[C@H](NC(=O)CCCCCCCCCCCCCCCCCCC(=O)O)C(=O)O)C(=O)N[C@@H](CCC(=O)O)C(=O)N[C@@H](CCC(=O)O)C(=O)N[C@@H](C)C(=O)NC(C)(C)C(=O)N[C@@H](CC(C)C)C(=O)N[C@@H](CCC(N)=O)C(=O)N[C@@H](CCCNC(=N)N)C(=O)N[C@@H](Cc1ccccc1)C(=O)N[C@@H](CC(C)C)C(=O)N[C@@H](CCC(=O)O)C(=O)N[C@@H](Cc1c[nH]cn1)C(=O)N[C@@H](CC(C)C)C(=O)N[C@H](C(N)=O)C(C)C)C(C)C)[C@@H](C)O)[C@@H](C)O [compound 175] (H-H[Aib]IGTFTSDVSYLK([AEEA-AEEA-γGlu-C20 diacid])EEA[Aib]LQRFLEHLV-NH2)
0.61	120310	–	–	–	0.0794 nM	904	63.1 nM	–	–	–	CC[C@H](C)[C@H](NC(=O)[C@H](Cc1ccccc1)NC(=O)[C@H](CCCNC(=N)N)NC(=O)[C@H](CCC(N)=O)NC(=O)[C@H](CC(C)C)NC(=O)[C@H](C)NC(=O)[C@H](C)NC(=O)CNC(=O)[C@H](CCC(=O)O)NC(=O)[C@H](CC(C)C)NC(=O)[C@H](CC(C)C)NC(=O)[C@H](Cc1c[nH]c2ccccc12)NC(=O)[C@H](CO)NC(=O)[C@H](Cc1c[nH]c2ccccc12)NC(=O)[C@H](CC(=O)O)NC(=O)[C@H](CO)NC(=O)[C@@H](NC(=O)[C@H](Cc1ccccc1)NC(=O)[C@@H](NC(=O)CNC(=O)[C@H](CCC(=O)O)NC(=O)C(C)(C)NC(=O)[C@@H](N)Cc1c[nH]cn1)[C@@H](C)O)[C@@H](C)O)C(=O)N[C@@H](CCC(N)=O)C(=O)N[C@@H](Cc1c[nH]c2ccccc12)C(=O)N[C@@H](CC(C)C)C(=O)N[C@H](C(N)=O)C(C)C [compound 191] (H-H[Aib]EGTFTSDWSWLLEGAALQRFIQWLV-NH2)
0.08	241858	–	–	–	–	–	–	3341	0.126 nM	398 nM	CC(C)C[C@H](NC(=O)[C@H](Cc1ccccc1)NC(=O)[C@H](CCCNC(=N)N)NC(=O)[C@H](CCC(N)=O)NC(=O)[C@H](CO)NC(=O)[C@H](C)NC(=O)[C@H](C)NC(=O)[C@H](Cc1ccccc1)NC(=O)[C@H](CCC(=O)O)NC(=O)[C@H](CCCCNC(=O)COCCOCCNC(=O)COCCOCCNC(=O)CC[C@H](NC(=O)CCCCCCCCCCCCCCCCCCC(=O)O)C(=O)O)NC(=O)[C@H](CC(C)C)NC(=O)[C@H](CCCNC(=N)N)NC(=O)[C@H](CO)NC(=O)[C@@H](NC(=O)[C@H](CC(=O)O)NC(=O)[C@H](CO)NC(=O)[C@@H](NC(=O)[C@H](Cc1ccccc1)NC(=O)[C@@H](NC(=O)CNC(=O)[C@H](CCC(=O)O)NC(=O)C(C)(C)NC(=O)[C@@H](N)Cc1c[nH]cn1)[C@@H](C)O)[C@@H](C)O)C(C)C)C(=O)N[C@@H](CCC(=O)O)C(=O)N[C@@H](Cc1c[nH]cn1)C(=O)N[C@@H](CC(C)C)C(=O)N[C@H](C(N)=O)C(C)C [compound 52] (H-H[Aib]EGTFTSDVSRLK([AEEA-AEEA-γGlu-C20 diacid])EFAASQRFLEHLV-NH2)
0.40	253106	0.0501 nM	2754	158 nM	–	–	–	–	–	–	CC[C@H](C)[C@H](NC(=O)[C@H](Cc1ccccc1)NC(=O)[C@H](CCCNC(=N)N)NC(=O)[C@H](CCC(N)=O)NC(=O)[C@H](CC(C)C)NC(=O)[C@H](C)NC(=O)[C@H](C)NC(=O)CNC(=O)[C@H](CCC(=O)O)NC(=O)[C@H](CC(C)C)NC(=O)[C@H](CC(C)C)NC(=O)CNC(=O)[C@H](CO)NC(=O)[C@@H](NC(=O)[C@H](CC(=O)O)NC(=O)[C@H](CO)NC(=O)[C@@H](NC(=O)[C@H](Cc1ccccc1)NC(=O)[C@@H](NC(=O)CNC(=O)[C@H](CCC(=O)O)NC(=O)C(C)(C)NC(=O)[C@@H](N)Cc1c[nH]cn1)[C@@H](C)O)[C@@H](C)O)C(C)C)C(=O)N[C@@H](CCC(N)=O)C(=O)N[C@@H](Cc1c[nH]c2ccccc12)C(=O)N[C@@H](CC(C)C)C(=O)N[C@H](C(N)=O)C(C)C [compound 182] (H-H[Aib]EGTFTSDVSGLLEGAALQRFIQWLV-NH2)
0.11	99118	–	–	–	–	–	–	4095	0.02 nM	100 nM	CC(C)C[C@H](NC(=O)[C@H](Cc1ccccc1)NC(=O)[C@H](CCCNC(=N)N)NC(=O)[C@H](CCC(N)=O)NC(=O)[C@@H](NC(=O)[C@H](C)NC(=O)[C@H](C)NC(=O)[C@@H](NC(=O)[C@H](CCC(=O)O)NC(=O)[C@H](CCCCNC(=O)COCCOCCNC(=O)COCCOCCNC(=O)CC[C@H](NC(=O)CCCCCCCCCCCCCCCCCCC(=O)O)C(=O)O)NC(=O)[C@H](CC(C)C)NC(=O)[C@H](Cc1ccccc1)NC(=O)[C@H](CO)NC(=O)[C@@H](NC(=O)[C@H](CC(=O)O)NC(=O)[C@H](CO)NC(=O)[C@@H](NC(=O)[C@H](Cc1ccccc1)NC(=O)[C@@H](NC(=O)CNC(=O)[C@H](CCC(=O)O)NC(=O)C(C)(C)NC(=O)[C@@H](N)Cc1c[nH]cn1)[C@@H](C)O)[C@@H](C)O)C(C)C)[C@@H](C)O)[C@@H](C)O)C(=O)N[C@@H](CCC(=O)O)C(=O)N[C@@H](Cc1c[nH]cn1)C(=O)N[C@@H](CC(C)C)C(=O)N[C@H](C(N)=O)C(C)C [compound 70] (H-H[Aib]EGTFTSDVSFLK([AEEA-AEEA-γGlu-C20 diacid])ETAATQRFLEHLV-NH2)
0.08	11365	–	–	–	–	–	–	18582	0.0251 nM	398 nM	CC(C)C[C@H](NC(=O)[C@H](Cc1ccccc1)NC(=O)[C@H](CCCNC(=N)N)NC(=O)[C@H](CCC(N)=O)NC(=O)[C@H](CCC(=O)O)NC(=O)[C@H](C)NC(=O)[C@H](C)NC(=O)[C@@H](NC(=O)[C@H](CCC(=O)O)NC(=O)[C@H](CCCCNC(=O)COCCOCCNC(=O)COCCOCCNC(=O)CC[C@H](NC(=O)CCCCCCCCCCCCCCCCCCC(=O)O)C(=O)O)NC(=O)[C@H](CC(C)C)NC(=O)[C@H](CCCNC(=N)N)NC(=O)[C@H](CO)NC(=O)[C@@H](NC(=O)[C@H](CC(=O)O)NC(=O)[C@H](CO)NC(=O)[C@@H](NC(=O)[C@H](Cc1ccccc1)NC(=O)[C@@H](NC(=O)CNC(=O)[C@H](CCC(=O)O)NC(=O)C(C)(C)NC(=O)[C@@H](N)Cc1c[nH]cn1)[C@@H](C)O)[C@@H](C)O)C(C)C)[C@@H](C)O)C(=O)N[C@@H](CCC(=O)O)C(=O)N[C@@H](Cc1c[nH]cn1)C(=O)N[C@@H](CC(C)C)C(=O)N[C@H](C(N)=O)C(C)C [compound 34] (H-H[Aib]EGTFTSDVSRLK([AEEA-AEEA-γGlu-C20 diacid])ETAAEQRFLEHLV-NH2)
0.08	24482	0.126 nM	6301	794 nM	–	–	–	–	–	–	CC(C)C[C@H](NC(=O)[C@H](Cc1ccccc1)NC(=O)[C@H](CCCNC(=N)N)NC(=O)[C@H](CCC(N)=O)NC(=O)[C@H](CCC(N)=O)NC(=O)[C@H](C)NC(=O)[C@H](C)NC(=O)[C@H](Cc1ccccc1)NC(=O)[C@H](CCC(=O)O)NC(=O)[C@H](CCCCNC(=O)COCCOCCNC(=O)COCCOCCNC(=O)CC[C@H](NC(=O)CCCCCCCCCCCCCCCCCCC(=O)O)C(=O)O)NC(=O)[C@H](CC(C)C)NC(=O)[C@@H](NC(=O)[C@H](CO)NC(=O)[C@@H](NC(=O)[C@H](CC(=O)O)NC(=O)[C@H](CO)NC(=O)[C@@H](NC(=O)[C@H](Cc1ccccc1)NC(=O)[C@@H](NC(=O)CNC(=O)[C@H](CCC(=O)O)NC(=O)C(C)(C)NC(=O)[C@@H](N)Cc1c[nH]cn1)[C@@H](C)O)[C@@H](C)O)C(C)C)[C@@H](C)O)C(=O)N[C@@H](CCC(=O)O)C(=O)N[C@@H](Cc1c[nH]cn1)C(=O)N[C@@H](CC(C)C)C(=O)N[C@H](C(N)=O)C(C)C [compound 100] (H-H[Aib]EGTFTSDVSTLK([AEEA-AEEA-γGlu-C20 diacid])EFAAQQRFLEHLV-NH2)
